# Assay results: patent USRE47689E1, “Compounds for treating spinal muscular atrophy” (PTC Therapeutics, Inc., priority 2011, dated 2019)
# Columns and labels:
# [1] = system: SMN2 minigene (full length SMN2 minigene mRNA containing SMN2 exon 7); experiment: SMN2 minigene mRNA splicing RT-qPCR assay in cultured cells; type: cell-based, human; details: Homo sapiens, HEK293-H; HEK293H cells stably transfected with SMN2-A minigene; 24 hours; 7-point concentration curve; 1.5-fold relative to vehicle-treated cells; read-out: EC1.5x for production of full length SMN2 mRNA
# Summary of the method: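 Full-length SMN2 minigene mRNA (exon 7 included), minigene-specific and not endogenous SMN, quantified by RT-qPCR multiplexed with GAPDH in stably transfected HEK293H cells after 24 h compound exposure at 37° C. Abundance from efficiency-corrected Ct, normalized to GAPDH and vehicle; EC1.5x reported as star bins.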
# [2] = system: Smn protein; experiment: Smn protein assay in cultured cells (SMN HTRF); type: cell-based, human; details: 48 hours; for EC1.5x (concentration giving 1.5-fold Smn protein increase): SMA Type 1 patient fibroblast cells (GM03813), 7-point concentration curve, SMN HTRF, concentration producing 1.5 times Smn protein vs DMSO vehicle control, read-out: EC1.5x for Smn protein expression; for maximum fold (Fold) increase of Smn protein: SMA patient fibroblast cells, 7-point concentration data, fold increase relative to vehicle control (SMN HTRF)
# Summary of the method: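 Smn in SMA fibroblast lysates, measured by anti-SMN HTRF after 48 h compound exposure; EC1.5x from fold change over vehicle.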
SMILES,melting point [°C],EC (1.5-fold) [1] [µM],EC1.5x (concentration giving 1.5-fold Smn protein increase) [2] [nM],maximum fold (Fold) increase of Smn protein [2]
"Cc1cn2cc(-c3cc4ccc(CCCCN5CCC[C@@H]5CO)cc4oc3=O)nc2c(C)n1 [Compound 904, 3-(6,8-dimethylimidazo[1,2-a]pyrazin-2-yl)-7-{4-[(2R)-2-(hydroxymethyl)pyrrolidin-1-yl]butyl}-2H-chromen-2-one]",147 to 151,0.1 to 0.3,300 to 1000,**** (fold increase between >1.5 and ≤1.65)
"CN1CCN(c2ccc3cc(-c4cn5cccc(F)c5n4)c(=O)oc3c2)CC1 [Compound 150, 3-(8-fluoroimidazo[1,2-a]pyridin-2-yl)-7-(4-methylpiperazin-1-yl)-2H-chromen-2-one]",278 to 280,0.3 to 1,3000 to 10000,*** (fold increase between >1.35 and ≤1.5)
"Cc1ccn2cc(-c3cc4ccc(N5CCCN(C)CC5)cc4oc3=O)nc2n1 [Compound 227, 7-(4-methyl-1,4-diazepan-1-yl)-3-(7-methylimidazo[1,2-a]pyrimidin-2-yl)-2H-chromen-2-one]",232 to 236,0.1 to 0.3,3000 to 10000,*** (fold increase between >1.35 and ≤1.5)
"Cc1cn2cc(-c3cc4ccc(CCCNC(C)CO)cc4oc3=O)nc2c(C)n1 (stereo not shown) [Compound 881, 3-(6,8-dimethylimidazo[1,2-a]pyrazin-2-yl)-7-{3-[(1-hydroxypropan-2-yl)amino]propyl}-2H-chromen-2-one]",181 to 184,< 0.1,< 300,**** (fold increase between >1.5 and ≤1.65)
"Cc1cc(F)cn2cc(-c3cc4ccc(N5C[C@@H](C)N[C@@H](C)C5)cc4oc3=O)nc12 [Compound 331, 7-[(3R,5S)-3,5-dimethylpiperazin-1-yl]-3-(6-fluoro-8-methylimidazo[1,2-a]pyridin-2-yl)-2H-chromen-2-one]",290 to 300,0.3 to 1,,* (maximum fold increase of ≤1.2)
"CC(c1ccc2cc(-c3nc4ccccc4s3)c(=O)oc2c1)N(C)C (stereo not shown) [Cpd 143, 3-(1,3-benzothiazol-2-yl)-7-[1-(dimethylamino)ethyl]-2H-chromen-2-one]",130 to 133,1 to 3,,*** (fold increase between >1.35 and ≤1.5)
"CN(C)Cc1ccc2cc(-c3nc4c(Cl)cccc4s3)c(=O)oc2c1 [Cpd 14, 3-(4-chloro-1,3-benzothiazol-2-yl)-7-[(dimethylamino)methyl]-2H-chromen-2-one]",179 to 182,0.3 to 1,,*** (fold increase between >1.35 and ≤1.5)
"COc1ccc(-c2cc3ccc(N4CCNCC4)cc3oc2=O)cc1OC [Cpd 316, 3-(3,4-dimethoxyphenyl)-7-(piperazin-1-yl)-2H-chromen-2-one]",168 to 170,0.3 to 1,,** (fold increase between >1.2 and ≤1.35)
"CCN(CC)Cc1ccc2cc(-c3nc4ccccc4s3)c(=O)oc2c1 [Compound 57, 3-(1,3-benzothiazol-2-yl)-7-[(diethylamino)methyl]-2H-chromen-2-one]",116 to 119,1 to 3,,** (fold increase between >1.2 and ≤1.35)
"Cc1cc(F)c2nc(-c3cc4ccc(N5CCCNCC5)cc4oc3=O)cn2c1 [Compound 427, 7-(1,4-diazepan-1-yl)-3-(8-fluoro-6-methylimidazo[1,2-a]pyridin-2-yl)-2H-chromen-2-one]",242 to 252,0.3 to 1,,*** (fold increase between >1.35 and ≤1.5)
"O=c1oc2cc(N3CCCNCC3)cc(F)c2cc1-c1nc2c(F)cccc2o1 [Compound 368, 7-(1,4-diazepan-1-yl)-5-fluoro-3-(4-fluoro-1,3-benzoxazol-2-yl)-2H-chromen-2-one]",240 to 245,0.3 to 1,,** (fold increase between >1.2 and ≤1.35)
"CN(C)Cc1ccc2cc(-c3cn4ccsc4n3)c(=O)oc2c1 [Compound 198, 7-[(dimethylamino)methyl]-3-(imidazo[2,1-b][1,3]thiazol-6-yl)-2H-chromen-2-one]",135 to 140,0.3 to 1,3000 to 10000,**** (fold increase between >1.5 and ≤1.65)
"CC(CO)NCc1ccc2cc(-c3nc4c(Cl)cccc4s3)c(=O)oc2c1 (stereo not shown) [Compound 270, 3-(4-chloro-1,3-benzothiazol-2-yl)-7-{[(1-hydroxypropan-2-yl)amino]methyl}-2H-chromen-2-one]",186 to 190,1 to 3,,** (fold increase between >1.2 and ≤1.35)
"Cc1cn2cc(-c3cc4ccc(N5CCC(N(C)C)CC5)cc4oc3=O)nc2c(C)n1 [Compound 921, 7-[4-(dimethylamino)piperidin-1-yl]-3-(6,8-dimethylimidazo[1,2-a]pyrazin-2-yl)-2H-chromen-2-one]",189 to 193,< 0.1,< 300,**** (fold increase between >1.5 and ≤1.65)
"Cc1cn2cc(-c3cc4ccc(CCCN5CCNCC5)cc4oc3=O)nc2c(C)n1 [Compound 859, 3-(6,8-dimethylimidazo[1,2-a]pyrazin-2-yl)-7-[3-(piperazin-1-yl)propyl]-2H-chromen-2-one]",145 to 153,0.1 to 0.3,300 to 1000,**** (fold increase between >1.5 and ≤1.65)
"Cc1ccn2nc(-c3cc4ccc(N5CCN[C@H](C)C5)cc4oc3=O)cc2c1 [Compound 306, 7-[(3R)-3-methylpiperazin-1-yl]-3-(5-methylpyrazolo[1,5-a]pyridin-2-yl)-2H-chromen-2-one]",183 to 187,0.1 to 0.3,,*** (fold increase between >1.35 and ≤1.5)
"Cc1cn2cc(-c3cc4ccc(N5CCN(C(C)C)CC5)cc4oc3=O)cc2cn1 [Compound 692, 3-(3-methylpyrrolo[1,2-a]pyrazin-7-yl)-7-[4-(propan-2-yl)piperazin-1-yl]-2H-chromen-2-one]",221 to 225,< 0.1,< 300,**** (fold increase between >1.5 and ≤1.65)
"Cc1cn2cc(-c3cc4c(F)cc(N5CCN(C)CC5)cc4oc3=O)nc2cn1 [Compound 592, 5-fluoro-3-(6-methylimidazo[1,2-a]pyrazin-2-yl)-7-(4-methylpiperazin-1-yl)-2H-chromen-2-one]",283 to 284,< 0.1,< 300,***** (fold increase >1.65)
"Cc1cn2cc(-c3cc4ccc(N5CCN(CCCO)[C@@H](C)C5)cc4oc3=O)nc2c(C)n1 [Compound 907, 3-(6,8-dimethylimidazo[1,2-a]pyrazin-2-yl)-7-[(3S)-4-(3-hydroxypropyl)-3-methylpiperazin-1-yl]-2H-chromen-2-one]",187 to 190,< 0.1,< 300,**** (fold increase between >1.5 and ≤1.65)
"Cc1ccn2cc(-c3cc4ccc(N5CC6CCC5CN6)cc4oc3=O)nc2c1 (stereo not shown) [Compound 597, 7-(2,5-diazabicyclo[2.2.2]oct-2-yl)-3-(7-methylimidazo[1,2-a]pyridin-2-yl)-2H-chromen-2-one]",196 to 215,< 0.1,< 300,**** (fold increase between >1.5 and ≤1.65)
"Cc1cn2cc(-c3cc4ccc(N5CCN6CCC[C@H]6C5)cc4oc3=O)nc2c(C)n1 [Compound 634, 3-(6,8-dimethylimidazo[1,2-a]pyrazin-2-yl)-7-[(8aS)-hexahydropyrrolo[1,2-a]pyrazin-2(1H)-yl]-2H-chromen-2-one]",261 to 263,< 0.1,< 300,***** (fold increase >1.65)
"Cn1cc2cc(-c3cc4ccc(C5CCN(CCO)CC5)cc4oc3=O)ccc2n1 [Compound 861, 7-[1-(2-hydroxyethyl)piperidin-4-yl]-3-(2-methyl-2H-indazol-5-yl)-2H-chromen-2-one]",220 to 226,< 0.1,300 to 1000,***** (fold increase >1.65)
"C[C@@H]1CN(c2ccc3cc(-c4cc5ccccc5s4)c(=O)oc3c2)CCN1 [Compound 409, 3-(1-benzothiophen-2-yl)-7-[(3R)-3-methylpiperazin-1-yl]-2H-chromen-2-one]",264 to 266,1 to 3,,* (maximum fold increase of ≤1.2)
